Measured values published in US20070172815A1 (priority 2000, published 2007).
Values belong to the molecule of their own block, whether it stands above or below them.

How the values were obtained:
[1] = system: native, untransfected HEK cells; experiment: Control: BTC fluorescence in native, untransfected HEK cells under identical conditions; assay type: cell-based, human
Excerpt: A person of ordinary skill in the art will understand that control experiments can be performed to facilitate analysis of the effects of the candidate modulator. Control experiments can be performed using: (1) native, untransfected cells under identical conditions of the methods of the invention; (2) the addition of thallium ions to the test mixture in the absence of stimulus solution; (3) cells under identical conditions of the methods of the invention, but without the candidate modulator of the ion channels, channel-linked receptors or ion transporters added to the test mixture; and/or (4) cells under identical conditions to the methods of the invention, but using known modulators of the ion channels, channel-linked receptors or ion transporters.
(§1) Once loaded, apamin (5 μl/well of 500 nM stock dissolved in Cl^−-free assay buffer (Table II) or an equivalent volume of Cl^−-free assay buffer) was added. The microtiter plates were then transferred to the plate reader, FLIPR. After, or coincident with exposure to apamin or Cl^−-free assay buffer alone, the cells were exposed to 5 μl/well of a stimulus buffer containing 5 μM ionomycin (Calbiochem) and 7.5 mM Tl2SO4 dissolved in Cl^−-free assay buffer containing 2 mM amaranth and 1 mM tartrazine.

[2] = target: T1, voltage-gated K+ channel KCNQ2 (Mus musculus, UniProt Q9Z351); experiment: Thallium influx assay (BTC fluorescence) in HEK-293 cells stably transfected with KCNQ2; assay type: cell-based; conditions: 15 μM final; thallium ions (5 mM) and K+ (20 mM); FIG. 3A
T1 construct: expressed in transfected cells
T1 sequence (Q9Z351 whole entry): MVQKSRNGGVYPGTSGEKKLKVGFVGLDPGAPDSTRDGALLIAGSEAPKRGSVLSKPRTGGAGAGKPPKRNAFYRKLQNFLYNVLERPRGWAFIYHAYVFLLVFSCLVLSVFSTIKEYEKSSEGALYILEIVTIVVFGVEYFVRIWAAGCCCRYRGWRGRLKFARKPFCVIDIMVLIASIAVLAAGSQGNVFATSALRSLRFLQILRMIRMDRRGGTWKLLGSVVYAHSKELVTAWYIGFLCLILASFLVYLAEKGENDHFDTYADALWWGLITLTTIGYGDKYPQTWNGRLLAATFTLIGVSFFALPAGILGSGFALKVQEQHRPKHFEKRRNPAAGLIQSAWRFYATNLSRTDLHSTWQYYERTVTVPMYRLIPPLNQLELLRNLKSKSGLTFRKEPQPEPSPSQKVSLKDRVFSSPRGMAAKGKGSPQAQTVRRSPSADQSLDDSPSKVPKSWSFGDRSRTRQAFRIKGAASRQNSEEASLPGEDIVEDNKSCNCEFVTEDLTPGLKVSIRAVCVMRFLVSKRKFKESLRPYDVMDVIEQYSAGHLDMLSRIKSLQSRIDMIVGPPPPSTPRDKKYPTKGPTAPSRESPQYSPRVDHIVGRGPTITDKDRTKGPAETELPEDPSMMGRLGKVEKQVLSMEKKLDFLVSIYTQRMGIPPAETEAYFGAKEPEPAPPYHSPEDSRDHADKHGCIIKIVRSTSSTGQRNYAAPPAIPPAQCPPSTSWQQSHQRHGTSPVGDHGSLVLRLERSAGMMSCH
Experimental: as §1
HEK-293 cell line stably transfected with the voltage-gated K^+ channel KCNQ2 was used; • 2. The channel opener used was retigabine (Main, M. J., et al., Mol. Pharmacol., 2000, 58, 253-62) at a final concentration of 15 μM; and • 3. The channel blocker DMP-543 (Zaczek, R., et al., J. Pharmacol. Exp. Ther. 1998, 285, 724-30) used was at a final concentration of 15 μM.
To detect channel blockers the KCNQ2 channels were opened with a combination of thallium ions (5 mM) and K^+ (20 mM). To detect openers the assay was initiated with thallium ions (3 mM).
To detect channel blockers the assay was started by adding 11 μl of stimulus buffer containing: 12.5 mM Tl2SO4 and 50 mM K2SO4 dissolved in the Cl^−-free assay buffer (Table II) containing 2 mM amaranth and 1 mM tartrazine. […]

[3] = target: T2, large conductance calcium-activated K+ channel, Maxi-K (a.k.a. BK, slo) (Homo sapiens, UniProt Q12791); experiment: Thallium influx assay (BTC fluorescence) in HEK-293 cells stably transfected with Maxi-K; assay type: cell-based
T2 construct: expressed in transfected cells
T2 sequence (Q12791 whole entry): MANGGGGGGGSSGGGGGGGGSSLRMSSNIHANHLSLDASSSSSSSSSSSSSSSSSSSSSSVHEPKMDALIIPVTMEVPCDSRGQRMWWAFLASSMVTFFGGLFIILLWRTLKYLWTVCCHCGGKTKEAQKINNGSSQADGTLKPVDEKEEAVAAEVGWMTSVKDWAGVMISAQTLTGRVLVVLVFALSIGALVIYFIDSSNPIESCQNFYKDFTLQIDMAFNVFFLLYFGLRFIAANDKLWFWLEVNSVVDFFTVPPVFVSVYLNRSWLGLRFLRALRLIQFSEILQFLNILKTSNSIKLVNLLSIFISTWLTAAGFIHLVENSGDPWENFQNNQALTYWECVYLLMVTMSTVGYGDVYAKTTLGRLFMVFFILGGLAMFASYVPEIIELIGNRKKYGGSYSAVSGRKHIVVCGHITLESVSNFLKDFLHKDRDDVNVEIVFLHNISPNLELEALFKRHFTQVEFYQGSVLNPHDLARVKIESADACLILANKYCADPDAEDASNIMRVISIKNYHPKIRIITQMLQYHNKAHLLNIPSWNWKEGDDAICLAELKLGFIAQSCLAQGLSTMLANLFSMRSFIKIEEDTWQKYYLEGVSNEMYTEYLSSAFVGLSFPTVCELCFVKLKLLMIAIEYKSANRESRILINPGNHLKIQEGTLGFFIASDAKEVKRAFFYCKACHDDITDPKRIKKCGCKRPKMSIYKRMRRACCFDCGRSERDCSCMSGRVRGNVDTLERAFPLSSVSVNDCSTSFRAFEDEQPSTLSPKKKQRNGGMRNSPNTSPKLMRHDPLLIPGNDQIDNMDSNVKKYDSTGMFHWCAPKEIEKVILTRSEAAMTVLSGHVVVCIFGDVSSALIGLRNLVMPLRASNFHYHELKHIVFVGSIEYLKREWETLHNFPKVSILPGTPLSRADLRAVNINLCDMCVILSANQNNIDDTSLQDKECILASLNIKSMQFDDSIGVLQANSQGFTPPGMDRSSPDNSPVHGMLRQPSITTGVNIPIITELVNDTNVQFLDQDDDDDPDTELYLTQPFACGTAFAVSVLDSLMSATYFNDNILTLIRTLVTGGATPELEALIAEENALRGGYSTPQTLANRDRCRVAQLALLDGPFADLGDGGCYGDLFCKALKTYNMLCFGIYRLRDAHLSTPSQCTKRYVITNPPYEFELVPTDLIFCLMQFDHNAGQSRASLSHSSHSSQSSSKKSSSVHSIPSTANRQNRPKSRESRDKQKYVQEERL

[4] = target: T3, non-selective cation channel vanilloid receptor (VR1) (Homo sapiens, UniProt Q8NER1); experiment: Thallium influx assay (BTC fluorescence) in CHO cells stably expressing VR1; assay type: cell-based
T3 construct: expressed in transfected cells
T3 sequence (Q8NER1 whole entry): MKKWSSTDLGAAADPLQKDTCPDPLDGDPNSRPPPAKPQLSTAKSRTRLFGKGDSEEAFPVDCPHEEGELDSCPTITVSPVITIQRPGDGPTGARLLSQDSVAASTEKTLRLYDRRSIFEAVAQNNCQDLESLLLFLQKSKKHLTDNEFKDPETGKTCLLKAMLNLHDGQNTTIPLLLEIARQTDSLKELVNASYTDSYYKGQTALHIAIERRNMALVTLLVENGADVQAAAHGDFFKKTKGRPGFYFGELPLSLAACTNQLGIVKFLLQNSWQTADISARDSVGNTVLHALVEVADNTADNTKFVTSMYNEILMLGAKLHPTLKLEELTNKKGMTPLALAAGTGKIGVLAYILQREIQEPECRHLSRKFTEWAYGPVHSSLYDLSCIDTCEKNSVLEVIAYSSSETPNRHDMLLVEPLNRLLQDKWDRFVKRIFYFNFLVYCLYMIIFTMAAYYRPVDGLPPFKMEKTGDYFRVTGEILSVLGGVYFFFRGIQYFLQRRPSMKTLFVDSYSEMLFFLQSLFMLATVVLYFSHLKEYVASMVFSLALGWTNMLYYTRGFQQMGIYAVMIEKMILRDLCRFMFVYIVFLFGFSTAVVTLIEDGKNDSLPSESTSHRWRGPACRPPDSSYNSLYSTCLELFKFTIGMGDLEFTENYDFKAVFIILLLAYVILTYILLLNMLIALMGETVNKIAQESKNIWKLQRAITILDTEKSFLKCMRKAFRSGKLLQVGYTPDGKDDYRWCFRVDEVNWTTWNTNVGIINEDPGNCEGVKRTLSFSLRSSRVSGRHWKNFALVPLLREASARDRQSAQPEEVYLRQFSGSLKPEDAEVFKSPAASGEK
Experimental: (§2) A HEK-293 cell line (obtained from ATCC, Manassas, Va.) stably expressing the small conductance calcium-activated K^+ channel (SK2) was seeded at ~80% confluence in a 384 well microtiter plate, coated with poly-D-lysine plates, containing 20 μl/well low Cl^− cell growth medium. The cells were allowed to incubate overnight at 37 C in a 5% CO2 incubator.
(§3) The cell-containing plates were removed from the incubator and loaded for approximately 15 min with 2 μM BTC-AM (Molecular Probes, Eugene, Oreg.) dissolved in 20 μL/well Cl^−-free assay buffer containing amaranth and tartrazine (the final concentration in the assay is 2 mM amaranth and 1 mM tartrazine). The AM ester of BTC (BTC-AM) is membrane permeant. As it diffuses across the membrane, it is cleaved by cellular esterases, producing a charged, membrane impermeant dye, BTC. These types of dyes and loading mechanisms are well known to those familiar with the art.
The microtiter plates were then transferred to the plate reader, FLIPR.
(§4) All data shown were collected using the FLIPR (Molecular Devices, Sunnyvale, Calif). […] 10 seconds of baseline prior to addition of the stimulus buffer.
All experimental conditions for this example were the same as Example II with the following exceptions: • 1. The cell line CHO stably expressing the non-selective cation channel vanilloid receptor (VR1) was used. • 2. The channel antagonist, capsazepine (Sigma-Aldrich, RBI St Louis, Mo.) was applied at a final concentration of 10 μM; and • 3. The assay was started by adding 5 μl of stimulus buffer containing: 1 μM capsaicin and 7.5 mM Tl2SO4 dissolved in a Cl^−-free assay buffer containing 2 mM amaranth and 1 mM tartrazine.

[5] = target: T4, small conductance calcium-activated K+ channel (SK2) (Homo sapiens, UniProt Q9H2S1); experiment: Thallium influx assay (BTC fluorescence, FLIPR) in HEK-293 cells stably expressing SK2; assay type: cell-based; conditions: stimulus buffer with 5 μM ionomycin and 7.5 mM Tl2SO4; FIG. 1
T4 construct: expressed in transfected cells
T4 sequence (Q9H2S1 whole entry): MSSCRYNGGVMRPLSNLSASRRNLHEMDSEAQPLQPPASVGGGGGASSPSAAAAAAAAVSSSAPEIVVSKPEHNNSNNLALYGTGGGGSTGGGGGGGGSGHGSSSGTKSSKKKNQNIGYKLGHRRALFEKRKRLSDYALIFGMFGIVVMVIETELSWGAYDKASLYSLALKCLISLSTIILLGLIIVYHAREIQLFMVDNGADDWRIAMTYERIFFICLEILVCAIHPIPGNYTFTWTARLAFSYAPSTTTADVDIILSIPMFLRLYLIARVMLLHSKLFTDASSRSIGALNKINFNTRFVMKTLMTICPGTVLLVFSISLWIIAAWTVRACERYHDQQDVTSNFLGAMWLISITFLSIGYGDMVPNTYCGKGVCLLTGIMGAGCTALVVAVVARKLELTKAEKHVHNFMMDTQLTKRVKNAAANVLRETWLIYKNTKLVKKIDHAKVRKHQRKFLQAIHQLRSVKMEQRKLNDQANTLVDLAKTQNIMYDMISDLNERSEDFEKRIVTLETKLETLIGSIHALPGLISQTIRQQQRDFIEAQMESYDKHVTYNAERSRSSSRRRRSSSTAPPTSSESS
Experimental: as §1

[6] = target: T4, small conductance calcium-activated K+ channel (SK2); experiment: Thallium efflux assay (FluoZin-1 fluorescence) in SK2 expressing HEK-293 cells; assay type: cell-based; conditions: stimulus buffer with 5 μM ionomycin; cells preloaded with thallium; FIG. 5
Experimental: Instead of loading the cells with 2 μM BTC-AM, the cells were loaded with 2 μM FluoZin-1 (Molecular Probes, Eugene, Oreg.)
After loading the cells with FluoZin-1, the cells were exposed to 10 μl/well of Cl^−-free assay buffer containing 7.5 mM Tl2SO4 for 10 minutes at room temperature. This step loads the cells with thallium which interacts with the thallium ion sensitive fluorescent dye FluoZin-1 and increases its fluorescence.
Following loading the cells with thallium ions, the solution bathing the cells was aspirated off, and replaced with 80 μl/well of Cl^−-free assay buffer.

[7] = target: Muscarinic acetylcholine receptor (Homo sapiens, UniProt P20309)
Sequence of Muscarinic acetylcholine receptor (P20309 whole entry): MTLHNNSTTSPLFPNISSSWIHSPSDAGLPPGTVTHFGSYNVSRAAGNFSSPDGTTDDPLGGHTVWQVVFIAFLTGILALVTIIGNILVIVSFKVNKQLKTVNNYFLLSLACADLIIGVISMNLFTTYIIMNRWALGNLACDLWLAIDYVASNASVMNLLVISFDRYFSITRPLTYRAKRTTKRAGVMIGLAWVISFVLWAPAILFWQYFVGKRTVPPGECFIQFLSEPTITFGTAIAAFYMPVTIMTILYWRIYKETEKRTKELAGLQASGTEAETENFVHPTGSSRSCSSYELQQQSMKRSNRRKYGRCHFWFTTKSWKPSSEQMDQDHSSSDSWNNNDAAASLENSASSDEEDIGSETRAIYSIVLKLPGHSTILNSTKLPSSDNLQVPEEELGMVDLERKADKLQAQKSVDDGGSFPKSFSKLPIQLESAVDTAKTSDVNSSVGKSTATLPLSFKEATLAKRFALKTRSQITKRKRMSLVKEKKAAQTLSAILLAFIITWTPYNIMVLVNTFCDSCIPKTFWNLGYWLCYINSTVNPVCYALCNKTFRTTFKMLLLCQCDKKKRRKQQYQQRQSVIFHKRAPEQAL
Experimental: as §2, §3, §4

[8] = Example III (Maxi-K) conditions

Molecule: O=C1c2ccccc2C(Cc2ccnc(F)c2)(Cc2ccnc(F)c2)c2ccccc21 [DMP-543]
Effect on the fluorescence of BTC loaded into native, untransfected HEK cells ([1]; Example IV (KCNQ2) conditions): Neither DMP-543 nor retigabine had any effects | Effect of blocker on the thallium/potassium-induced increase in BTC fluorescence [2]: completely abolished

Molecule: O=c1[nH]c2cc(C(F)(F)F)ccc2n1-c1cc(C(F)(F)F)ccc1O [NS-1619]
Effect of opener on the thallium-induced increase in BTC fluorescence compared to absence of opener [3]: marked increase | Effect on the fluorescence of BTC loaded into native, untransfected HEK cells [1, 8]: Neither iberiotoxin nor NS-1619 had any effects

Effect of compound alone on BTC fluorescence in VR1 expressing CHO cells [4]: small decrease, but no increase | Change in BTC fluorescence upon addition of thallium and agonist ([4]; stimulus buffer with 1 μM capsaicin and 7.5 mM Tl2SO4, FIG. 4): substantial increase
Molecule: COc1cc(CNC(=O)CCCC/C=C/C(C)C)ccc1O [capsaicin]

Effect of antagonist on the thallium/capsaicin-induced increase in BTC fluorescence ([4]; 10 μM final, FIG. 4): completely abolished | Effect of compound alone on BTC fluorescence in VR1 expressing CHO cells [4]: no effect
Molecule: Oc1cc2c(cc1O)CN(C(=S)NCCc1ccc(Cl)cc1)CCC2 [capsazepine]

Molecule: C[C@H](CCC(=O)O)C[C@H](C)C[C@H](C)C(=O)/C=C(\O)[C@H](C)C[C@H](C)C/C=C/[C@@H](C)[C@@H](O)[C@@H](C)[C@@H](O)C[C@@H]1CC[C@@](C)([C@H]2CC[C@@](C)([C@@H](C)O)O2)O1 [ionomycin]
Change in BTC fluorescence upon addition of thallium ions plus ionomycin (activation of SK2) [5]: substantial increase | Change in FluoZin-1 fluorescence upon addition of ionomycin (thallium efflux via activated SK channel) [6]: decrease in fluorescence

Molecule: C[N+](C)(C)CC#CCN1CCCC1=O [oxo-M, oxotremorine-M]
Change in BTC fluorescence upon addition of muscarinic receptor agonist [7]: increase in BTC fluorescence

Molecule: Iberiotoxin (QFTDVDCSVSKECWSVCKDLFGVDRGKCMGKKCRCYQ; UniProt P24663 1-37, looked up)
Effect of blocker on the thallium/ionomycin/potassium-induced increase in BTC fluorescence ([3]; 100 nM final, stimulus buffer with 15 μM ionomycin, FIG. 2A): completely abolished | Effect on the fluorescence of BTC loaded into native, untransfected HEK cells [1, 8]: Neither iberiotoxin nor NS-1619 had any effects
